Test results as given in patent US8993556B2, “Resorcinol derivatives as HSP90 inhibitors” (priority 2009, dated 2015).
Where two headings read alike, the source gives them in different places.

Legend:
in vivo = conditions: Mouse Balb Nu/Nu, single; for clearance / half-life / Vd: 10 mg/kg IV bolus; for clearance: read-out: CL (mL/h/kg) Plasma clearance (converted); for half-life: read-out: T1/2 (h) Terminal half-life (converted); for Vd: read-out: Vdss (mL/kg) Volume of distribution at steady state; for bioavailability: 10 mg/kg oral vs 10 mg/kg IV, read-out: F % Oral bioavailability
Method: Calibration Standards and Quality Controls were prepared spiking blank mouse plasma with appropriate working solutions.
Sample plasma proteins were precipitated by adding 160 μL of acetonitrile/methanol 90/10 to 20 μL of mouse plasma in a 96 well plate.
After heat sealing and mixing for 3 minutes, the plate was centrifuged for 15 minutes at 4000 rpm.
The supernatant was considered as final extract and injected onto the LC-MS-MS system.
• UPLC system: Waters Acquity BSM • Mobile phase A: 95:5-5 mM Ammonium Formate pH3.5: Acetonitrile • Mobile phase B: 5:95-5 mM Ammonium Formate pH3.5: Acetonitrile • Analytical column: BEH C18 50×2.1 1.7 μm • Elution conditions:
• Total Run Time: 2.0 min. • Flow rate: 0.500 mL/min • Approximate retention time: NMS-03308086: 0.67 min. • Column oven temp: 40° C. • Autosampler type: Waters Acquity SM • Injection volume: 3 μL • Injection mode: Partial Loop with Needle Overfill • Autosampler temperature: 5° C. • MS instrument: Waters TQD • Ionisation: ES+ • Capillary: 1.5 kV • Cone: 70 V • Source Temperature: 150° C. • Desolvation Flow and Temp.: 900 L/h-400° C. • Collision Gas Flow: 0.2 mL/min • Collision Energy: 40 • MRM transitions: NMS-03308086: m/z 579.1>m/z 97.0 • Dwell Time: 0.1 seconds • LLOQ: 5.0 ng/mL • ULOQ: 5000 ng/mL • Software used: Mass Lynx 4.1 SCN627

His-HSP90 N-term domain = assay: Determination of KD Via Biacore; type: binding; conditions: Biacore T100
Method: The evaluation of the binding affinity (KD) of the compounds of formula (I) to the HSP90 protein was done using Biacore T100.
His-HSP90 N-term domain was immobilized by capture of his tag by the Ab previously covalently bound to the chip (CM5) surface.
The compounds were analyzed using the following running buffer: 20 mM Tris/HCl pH 7.6, 150 mM KCl, 5 mM MgCl2, 0.05% P20 and 1% DMSO. The flow rate was 50 ul/min with and association time of 60 seconds.
The cpds were diluted in running buffer from 100× stock solution; the different conc injected were obtained from a sequential dilution in order to have the same DMSO conc. in each sample and avoid any solvent correction.

[1] = test system: Her2 protein levels in BT474 breast cancer cells; assay: Her2 Degradation Assay; type: cell-based; conditions: Homo sapiens
Method: The potencies of the compounds of the present invention were evaluated by measuring the Her2 degradation as a marker for HSP90 inhibition.
HSP90 is a key component of a chaperone machinery that catalyzes the folding and quality control of several proteins. Its inhibition impairs the capacity to fold or stabilize its client proteins, leading to the proteosomal dependent degradation of these unfolded proteins. […] Cellular activity of HSP90 inhibitors was assessed by measuring the induced loss of Her2 protein levels in BT474 breast cancer cells (ATCC #HTB-20). Cellular Her2 levels were measured by immunocytochemistry, and quantified using an ArrayScan vTi instrument (Cellomics Thermo Scientific).
Cellular activity of HSP90 inhibitors was assessed by measuring the induced loss of Her2 protein levels in BT474 breast cancer cells (ATCC #HTB-20). Cellular Her2 levels were measured by immunocytochemistry, and quantified using an ArrayScan vTi instrument (Cellomics Thermo Scientific).
Studies were performed as follows: 5000 cells/well are seeded in 96 well plates (Perkin Elmer) in DMEM/5% FCS and incubated for 48 hours at 37° C., 5% CO2.
Medium is then replaced with fresh medium containing test compounds at the required concentration. Concentration curves are prepared in DMEM/10% FCS from compound stocks in DMSO, and final DMSO concentration is 0.1% (v/v). Duplicate wells for each concentration point are prepared, with a typical highest compound concentration of 30 μM. […] Plates are incubated for 20 minutes at room temperature, then wells are washed in PBS and cells permiabilised by incubating with PBS containing 0.3% Triton X-100 for 15 minutes at room temperature. Non-specific binding sites are blocked by incubating wells for 1 hour in PBS containing 3% (w/v) BSA. Wells are then incubated for 1 hour at room temperature in PBS containing anti Her2 mouse monoclonal (Anti-c-ErbB2/c-Neu, Mouse mAb 3B5, Calbiochem Cat N^o OP15) diluted 1:100 in 1% (w/v) BSA. […] After washing a further 3 times in PBS, cellular Her2 immunoreactivity is assessed using the ArrayScan vTi instrument, with a Zeiss 10× 0.5 N.A. objective, and applying the Cytotoxity.V3 algorithm (Cellomics/Thermo Fisher) with a XF100 filter. At least 10 fields, corresponding to at least 900 cells, are read for each well.
IC50 is the response; IC50 starts at Bottom and goes to Top with a sigmoid shape. In Vitro Cell Proliferation Assay

[2] = test system: A2780 human ovarian cells; assay: In Vitro Cell Proliferation Assay; type: cell-based
Method: The cells were incubated at 37° C. and 5% CO2 and after 72 hours the plates were processed using CellTiter-Glo assay (Promega) following the manufacturer's instruction.
CellTiter-Glo is a homogenous method based on the quantification of the ATP present, an indicator of metabolically active cells. ATP is quantified using a system based on luciferase and D-luciferin resulting into light generation. The luminescent signal is proportional to the number of cells present in culture.
Briefly 25 μL/well reagent solution are added to each wells and after 5 minutes shacking microplates are red by a luminometer. The luminescent signal is proportional to the number of cells present in culture.

[3] = test system: human ovarian carcinoma cell line A2780 transplanted in immunodeficient mice; assay: In Vivo Antitumor Efficacy; design: species or system mouse; conditions: for TGI: A2780 in athymic mice
Method: Antitumor activity of HSP90 inhibitors was assessed in vivo using the human ovarian carcinoma cell line A2780 transplanted in immunodeficient mice.
Balb Nu/Nu, male mice, (athymic mice) from Harlan, Italy, were maintained in cages with paper filter covers, food and bedding sterilized and water acidified. A2780 tumors were maintained in vivo by serial transplantation and, at the time of efficacy experiments, implanted subcutaneously in athymic mice. The treatments started 8 days later when the tumors were palpable. HSP90 inhibitors were prepared immediately before use and administered intravenously in a volume of 10 ml/kg at different doses.
Tumor growth was assessed by caliper. The two diameters were recorded, and the tumor weight was calculated according to the following formula: length (mm)×width^2 (mm)/2. The effect of the antitumor treatment was determined as tumor growth inhibition (TGI %) of treated group respect to vehicle treated controls.

[4] = BT-474, 8 h, read-out: Her2 Degradation IC50 (μM)
[5] = Homo sapiens, A2780, 72 h, read-out: A2780 Proliferation IC50 (μM)
[6] = BT-474, BT474 breast cancer cells, 8 hours, read-out: Her2 Degradation IC50
[7] = A2780 human ovarian cells, 72 hours, CellTiter-Glo, read-out: A2780 Proliferation IC50

Work on `CN(C)c1ccc(Oc2cc(O)cc(O)c2-c2cc(C(=O)NC3CCN(C4CCC5(CC4)OCCO5)CC3)no2)cc1` yielded a clearance (in vivo) of 1760 mL/h/kg, a half-life (in vivo) of 5.46 h and a Vd (in vivo) of 4940 mL/kg. For the same molecule, the bioavailability (in vivo) was 36%.
In the case of `CN1CCC(NC(=O)c2cc(-c3c(O)cc(O)cc3Oc3ccc([N+](=O)[O-])cc3)no2)CC1` [3-[2,4-Dihydroxy-6-(4-nitrophenoxy)phenyl]-N-(1-methylpiperidin-4-yl)isoxazole-5-carboxamide], the clearance (in vivo) is reported as 3420 mL/h/kg, the half-life (in vivo) is reported as 1.52 h and the Vd (in vivo) is reported as 4470 mL/kg. For the same molecule, the bioavailability (in vivo) was 7%, the Kd (His-HSP90 N-term domain) was 0.24 nM and the IC50 [1, 4] was 0.022 µM. The IC50 [2, 5] was 0.02 µM.
`CN(C)c1ccc(Oc2cc(O)cc(O)c2-c2cc(C(=O)NC3CCN(C4CCC5(CC4)OCCO5)CC3)on2)cc1` [3-{2-[4-(Dimethylamino)phenoxy]-4,6-dihydroxyphenyl}-N-[1-(1,4-dioxaspiro[4.5]dec-8-yl)piperidin-4-yl]isoxazole-5-carboxamide] showed a clearance (in vivo) of 1910 mL/h/kg, a half-life (in vivo) of 7.23 h and a Vd (in vivo) of 9120 mL/kg. The bioavailability (in vivo) was 23%, the Kd (His-HSP90 N-term domain) was 0.043 nM and the IC50 [1, 6] was 0.003 µM. The IC50 [2, 7] was 0.02 µM.
`CC(C)N1CCC(NC(=O)c2cc(-c3c(O)cc(O)cc3Oc3ccc([N+](=O)[O-])cc3)on2)CC1` [5-[2,4-Dihydroxy-6-(4-nitrophenoxy)phenyl]-N-[1-(propan-2-yl)piperidin-4-yl]isoxazole-3-carboxamide] showed an IC50 [1, 4] of 0.058 µM.
Molecule `CCNC(=O)c1cc(-c2c(O)cc(O)cc2Oc2ccc([N+](=O)[O-])cc2)on1` [5-[2,4-Dihydroxy-6-(4-nitrophenoxy)phenyl]-N-ethyl isoxazole-3-carboxamide] has an IC50 [1, 4] of 0.059 µM and an IC50 [2, 5] of 0.07 µM.
`CN1CCC(NC(=O)c2cc(-c3c(O)cc(O)cc3Oc3ccc([N+](=O)[O-])cc3)on2)CC1` [5-[2,4-dihydroxy-6-(4-nitrophenoxy)phenyl]-N-(1-methylpiperidin-4-yl)isoxazole-3-carboxamide] showed an IC50 [1, 6] of 0.11 µM, an IC50 [2, 7] of 0.06 µM and a TGI ([3]; 30 mg/kg for 10 consecutive days, intravenously) of 53%. For the same molecule, the TGI ([3]; 60 mg/kg for 10 consecutive days, intravenously) was 74% and the signs of toxicities ([3]; 30 and 60 mg/kg for 10 consecutive days, athymic mice) was “without signs of toxicities”.
In the case of `CCNC(=O)c1cc(-c2c(O)cc(O)cc2Oc2ccc(C#N)cc2)on1` [5-[2-(4-Cyanophenoxy)-4,6-dihydroxyphenyl]-N-ethylisoxazole-3-carboxamide], the IC50 [1, 6] is reported as 0.277 µM.
In the case of `CCNC(=O)c1cc(-c2c(O)cc(O)cc2Oc2ccc(Cl)cc2)on1` [5-[2-(4-chlorophenoxy)-4,6-dihydroxyphenyl]-N-ethylisoxazole-3-carboxamide], the IC50 [1, 4] is reported as 0.059 µM.
`CN1CCC(NC(=O)c2cc(-c3c(O)cc(O)cc3Oc3ccc(N(C)C)cc3)on2)CC1` [5-{2-[4-(Dimethylamino)phenoxy]-4,6-dihydroxyphenyl}-N-(1-methylpiperidin-4-yl)isoxazole-3-carboxamide] showed an IC50 [1, 6] of 0.039 µM and a TGI ([3]; intravenously at 40 mg/Kg daily) of 77%.
With `CN(C)c1ccc(Oc2cc(O)cc(O)c2-c2cc(C(=O)NC3CCN(C4CCC5(CC4)OCC(C)(C)CO5)CC3)no2)cc1` [5-{2-[4-(Dimethylamino)phenoxy]-4,6-dihydroxyphenyl}-N-[1-(3,3-dimethyl-1,5-dioxaspiro[5.5]undec-9-yl)piperidin-4-yl]isoxazole-3-carboxamide] the clearance (in vivo) was 1340 mL/h/kg, the half-life (in vivo) was 6.71 h and the Vd (in vivo) was 6000 mL/kg. It also gave a bioavailability (in vivo) of 19%, a Kd (His-HSP90 N-term domain) of 0.08 nM and an IC50 [1, 6] of 0.037 µM. The IC50 [2, 7] was 0.035 µM.
For `CN(C)c1ccc(Oc2cc(O)cc(O)c2-c2cc(C(=O)NC3CCN(C4CCC5(CC4)OCCCCO5)CC3)no2)cc1` [5-{2-[4-(Dimethylamino)phenoxy]-4,6-dihydroxyphenyl}-N-[1-(7,12-dioxaspiro[5.6]dodec-3-yl)piperidin-4-yl]isoxazole-3-carboxamide], the clearance (in vivo) was 1310 mL/h/kg, the half-life (in vivo) was 6.87 h and the Vd (in vivo) was 5980 mL/kg. The bioavailability (in vivo) was 14%, the Kd (His-HSP90 N-term domain) was 0.423 nM and the IC50 [1, 6] was 0.045 µM. It also gave an IC50 [2, 7] of 0.023 µM.
Work on `CN(C)c1ccc(Oc2cc(O)cc(O)c2-c2cc(C(=O)NC3CCN(C4CCCCC4)CC3)no2)cc1` [N-(1-Cyclohexylpiperidin-4-yl)-5-{2-[4-(dimethylamino)phenoxy]-4,6-dihydroxyphenyl}isoxazole-3-carboxamide] yielded an IC50 [1, 4] of 0.003 µM.
Work on `O=C(NC1CCN(C2CCC(F)(F)CC2)CC1)c1cc(-c2c(O)cc(O)cc2Oc2ccc([N+](=O)[O-])cc2)on1` [N-[1-(4,4-Difluorocyclohexyl)piperidin-4-yl]-5-[2,4-dihydroxy-6-(4-nitrophenoxy)phenyl]isoxazole-3-carboxamide] yielded a Kd (His-HSP90 N-term domain) of 0.8 nM, an IC50 [1, 4] of 0.027 µM and an IC50 [2, 5] of 0.05 µM.
Molecule `CN(C)c1ccc(Oc2cc(O)cc(O)c2-c2cc(C(=O)NC3CCN(C4CCC(F)(F)CC4)CC3)no2)cc1` [N-[1-(4,4-Difluorocyclohexyl)piperidin-4-yl]-5-{2-[4-(dimethylamino)phenoxy]-4,6-dihydroxyphenyl}isoxazole-3-carboxamide] has a Kd (His-HSP90 N-term domain) of 0.057 nM, an IC50 [1, 4] of 0.002 µM and an IC50 [2, 5] of 0.02 µM.
In the case of `CN(C)c1ccc(Oc2cc(O)cc(O)c2-c2cc(C(=O)NC3CCN(CC4CCCCC4)CC3)no2)cc1` [N-[1-(Cyclohexylmethyl)piperidin-4-yl]-5-{2-[4-(dimethylamino)phenoxy]-4,6-dihydroxyphenyl}isoxazole-3-carboxamide], the Kd (His-HSP90 N-term domain) is reported as 0.188 nM, the IC50 [1, 4] is reported as 0.02 µM and the IC50 [2, 5] is reported as 0.01 µM.
